Data taken from patent US9890149B2 (NuBridge BioSciences, priority 2015, dated 2018).
Structures can show the parent of a compound that is named as a salt.

Each molecule was assayed against T1, ΔF508 mutant CFTR (Homo sapiens, UniProt P13569, DEL508-508) (assay: Fluorescence Assay (halide-sensitive YFP, iodide influx) for ΔF508 mutant CFTR activity). Details: FRT cells expressing ΔF508-CFTR and YFP-H148Q/I152L, incubated 27° C. 20-24 h; forskolin (20 μM) and test compounds (20 μM) for 20 min; rate of fluorescence quenching by I−, normalized to forskolin alone.
T1 construct: expressed in transfected cells; host or cells: Fischer rat thyroid (FRT) cells
T1 sequence (P13569 with tags, fused parts or gaps DEL508-508): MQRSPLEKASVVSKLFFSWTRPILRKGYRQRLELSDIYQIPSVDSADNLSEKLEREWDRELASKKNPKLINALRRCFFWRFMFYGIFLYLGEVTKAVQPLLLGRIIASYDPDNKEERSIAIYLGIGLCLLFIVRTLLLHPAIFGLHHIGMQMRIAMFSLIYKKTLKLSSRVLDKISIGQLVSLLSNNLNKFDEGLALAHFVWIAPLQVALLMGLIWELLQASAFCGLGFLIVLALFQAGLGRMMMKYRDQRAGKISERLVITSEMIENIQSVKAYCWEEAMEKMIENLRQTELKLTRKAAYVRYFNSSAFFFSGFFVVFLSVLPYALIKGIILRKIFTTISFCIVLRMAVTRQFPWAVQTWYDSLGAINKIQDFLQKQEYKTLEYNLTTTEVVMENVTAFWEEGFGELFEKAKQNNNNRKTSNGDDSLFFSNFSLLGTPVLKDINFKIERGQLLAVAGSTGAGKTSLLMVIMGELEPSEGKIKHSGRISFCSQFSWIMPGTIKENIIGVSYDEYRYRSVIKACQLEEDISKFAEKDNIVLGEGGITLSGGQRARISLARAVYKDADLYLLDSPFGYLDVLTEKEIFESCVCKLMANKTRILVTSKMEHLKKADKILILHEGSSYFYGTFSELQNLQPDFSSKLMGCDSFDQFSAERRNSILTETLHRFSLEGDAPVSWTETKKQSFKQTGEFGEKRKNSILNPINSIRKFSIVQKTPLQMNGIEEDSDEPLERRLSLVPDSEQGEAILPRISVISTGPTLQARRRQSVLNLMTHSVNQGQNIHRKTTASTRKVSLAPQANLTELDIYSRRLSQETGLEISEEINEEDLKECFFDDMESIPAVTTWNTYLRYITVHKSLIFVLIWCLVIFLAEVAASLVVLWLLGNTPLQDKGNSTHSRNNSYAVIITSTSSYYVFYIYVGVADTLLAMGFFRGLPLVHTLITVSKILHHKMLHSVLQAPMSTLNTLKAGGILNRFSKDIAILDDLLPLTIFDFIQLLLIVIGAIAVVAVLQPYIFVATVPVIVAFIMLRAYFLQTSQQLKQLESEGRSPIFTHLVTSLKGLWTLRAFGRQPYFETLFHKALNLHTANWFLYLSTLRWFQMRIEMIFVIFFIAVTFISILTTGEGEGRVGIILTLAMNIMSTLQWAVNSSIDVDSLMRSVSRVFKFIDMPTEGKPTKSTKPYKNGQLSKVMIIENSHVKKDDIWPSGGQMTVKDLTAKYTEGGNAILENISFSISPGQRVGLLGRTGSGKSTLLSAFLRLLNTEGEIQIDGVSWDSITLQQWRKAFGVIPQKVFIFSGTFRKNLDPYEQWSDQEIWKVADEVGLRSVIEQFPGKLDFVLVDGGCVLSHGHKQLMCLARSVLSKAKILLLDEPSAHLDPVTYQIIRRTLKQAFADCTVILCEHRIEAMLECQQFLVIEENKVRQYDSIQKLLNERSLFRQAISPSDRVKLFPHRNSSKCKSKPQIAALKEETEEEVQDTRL
Assay type: cell-based
Excerpt: The ΔF508 mutant CFTR activities of the CFTR modulators are detected using the Fluorescence Assay developed by Pedemonte (Pedemonte N., et al., Antihypertensive 1,4-dihydropyridines as correctors of the cystic fibrosis transmembrane conductance regulator channel gating defect caused by cystic fibrosis mutations, Mol. Pharmacol., 2005, 68, 1736-1746).
Fischer rat thyroid (FRT) cells, stably transfected with ΔF508 were retransfected with the YFP-H148Q/I152L fluorescent protein. The cells were plated (100,000 cells/well) on black 96-well microplates with clear plastic bottom (Corning Life Sciences, Acton, Mass.).
The 96-well microplates containing FRT cells expressing F508-CFTR and the halide-sensitive YFP were incubated at 27° C. for 20 to 24 h to allow rescue of the mutant protein to the plasma membrane. After incubation, cells were washed with PBS (containing 137 mM NaCl, 2.7 mM KCl, 8.1 mM Na2HPO4, 1.5 mM KH2PO4, 1 mM CaCl2, and 0.5 mM MgCl2) and stimulated for 20 min with forskolin (20 μM) and test compounds (20 μM) in a final volume of […] Microplates were then transferred to a microplate reader for CFTR activity determination.

Structure (SMILES) | CFTR Activity
Cl.O=C(Nc1cnsc1OC1CCNC1)c1ccc(F)c(-c2c(F)cccc2F)n1 (centres unmarked) [Example 4, 6-(2,6-difluorophenyl)-5-fluoro-N-(5-(pyrrolidin-3-yloxy)isothiazol-4-yl)picolinamide hydrochloride] | 0.8
Cl.O=C(Nc1cnsc1OC1CCCNC1)c1ccc(F)c(-c2c(F)cccc2F)n1 (centres unmarked) [Example 5, 6-(2,6-difluorophenyl)-5-fluoro-N-(5-(piperidin-3-yloxy)isothiazol-4-yl)picolinamide hydrochloride] | 0.5
Cl.O=C(Nc1cnsc1OC1CCCNCC1)c1ccc(F)c(-c2c(F)cccc2F)n1 (centres unmarked) [Example 6, N-(5-(azepan-4-yloxy)isothiazol-4-yl)-6-(2,6-difluorophenyl)-5-fluoropicolinamide hydrochloride] | 1.4
Cl.O=C(Nc1cnsc1OC1CNC1)c1ccc(F)c(-c2c(F)cccc2F)n1 [Example 9, N-(5-(azetidin-3-yloxy)isothiazol-4-yl)-6-(2,6-difluorophenyl)-5-fluoropicolinamide hydrochloride] | 0.1
Cl.N[C@H]1CC[C@H](Oc2sncc2NC(=O)c2ccc(F)c(-c3c(F)cccc3F)n2)CC1 [Example 10, N-(5-(((1r,4r)-4-aminocyclohexyl)oxy)isothiazol-4-yl)-6-(2,6-difluorophenyl)-5-fluoropicolinamide hydrochloride] | 1
Cl.NC1CCCC(Oc2sncc2NC(=O)c2ccc(F)c(-c3c(F)cccc3F)n2)C1 (centres unmarked) [Example 11, N-(5-((3-aminocyclohexyl)oxy)isothiazol-4-yl)-6-(2,6-difluorophenyl)-5-fluoropicolinamide hydrochloride] | 1.1
Cl.NCCCOc1sncc1NC(=O)c1ccc(F)c(-c2c(F)cccc2F)n1 [Example 12, N-(5-(3-aminopropoxy)isothiazol-4-yl)-6-(2,6-difluorophenyl)-5-fluoropicolinamide hydrochloride] | 0.7
CNCCCOc1sncc1NC(=O)c1ccc(F)c(-c2c(F)cccc2F)n1.Cl [Example 13, 6-(2,6-difluorophenyl)-5-fluoro-N-(5-(3-(methylamino)propoxy)isothiazol-4-yl)picolinamide hydrochloride] | 0.5
CN(C)CCCOc1sncc1NC(=O)c1ccc(F)c(-c2c(F)cccc2F)n1.Cl [Example 14, 6-(2,6-difluorophenyl)-N-(5-(3-(dimethylamino)propoxy)isothiazol-4-yl)-5-fluoropicolinamide hydrochloride] | 0.3
Cl.NCCCCOc1sncc1NC(=O)c1ccc(F)c(-c2c(F)cccc2F)n1 [Example 15, N-(5-(4-aminobutoxy)isothiazol-4-yl)-6-(2,6-difluorophenyl)-5-fluoropicolinamide hydrochloride] | 0.7
CNCCCCOc1sncc1NC(=O)c1ccc(F)c(-c2c(F)cccc2F)n1.Cl [Example 16, 6-(2,6-difluorophenyl)-5-fluoro-N-(5-(4-(methylamino)butoxy)isothiazol-4-yl)picolinamide hydrochloride] | 0.5
O=C(Nc1cnsc1OCCCO)c1ccc(F)c(-c2c(F)cccc2F)n1 [Example 17, 6-(2,6-difluorophenyl)-5-fluoro-N-(5-(3-hydroxypropoxy)isothiazol-4-yl)picolinamide] | 0.1
CC(O)CCOc1sncc1NC(=O)c1ccc(F)c(-c2c(F)cccc2F)n1 (centres unmarked) [Example 18, 6-(2,6-difluorophenyl)-5-fluoro-N-(5-(3-hydroxybutoxy)isothiazol-4-yl)picolinamide] | 0.12
O=C(Nc1cnsc1OCCCCO)c1ccc(F)c(-c2c(F)cccc2F)n1 [Example 19, 6-(2,6-difluorophenyl)-5-fluoro-N-(5-(4-hydroxybutoxy)isothiazol-4-yl)picolinamide] | 0.1
CC(C)(O)CCCOc1sncc1NC(=O)c1ccc(F)c(-c2c(F)cccc2F)n1 [Example 20, 6-(2,6-difluorophenyl)-5-fluoro-N-(5-((4-hydroxy-4-methylpentyl)oxy)isothiazol-4-yl)picolinamide] | 0.1
O=C(Nc1cnsc1OCCC(O)CO)c1ccc(F)c(-c2c(F)cccc2F)n1 (centres unmarked) [Example 21, 6-(2,6-difluorophenyl)-N-(5-(3,4-dihydroxybutoxy)isothiazol-4-yl)-5-fluoropicolinamide] | 0.5
O=C(Nc1cnsc1OCC1CCOCC1)c1ccc(F)c(-c2c(F)cccc2F)n1 [Example 22, 6-(2,6-difluorophenyl)-5-fluoro-N-(5-((tetrahydro-2H-pyran-4-yl)methoxy)isothiazol-4-yl)picolinamide] | 0.3
NCC(CCl)Oc1sncc1NC(=O)c1ccc(F)c(-c2c(F)cccc2F)n1 (centres unmarked) [Example 29, N-(5-((1-amino-3-chloropropan-2-yl)oxy)isothiazol-4-yl)-6-(2,6-difluorophenyl)-5-fluoropicolinamide hydrochloride] | 1.4
Cl.NCC(CCl)COc1sncc1NC(=O)c1ccc(F)c(-c2c(F)cccc2F)n1 (centres unmarked) [Example 30, N-(5-(3-amino-2-(chloromethyl)propoxy)isothiazol-4-yl)-6-(2,6-difluorophenyl)-5-fluoropicolinamide hydrochloride] | 1.4

Second part, the molecule after the results:

CFTR Activity | Structure (SMILES)
0.9 | Cl.O=C(Nc1cnsc1OCC1CCNCC1)c1ccc(F)c(-c2c(F)cccc2F)n1 [Example 1, 6-(2,6-difluorophenyl)-5-fluoro-N-(5-(piperidin-4-ylmethoxy)isothiazol-4-yl)picolinamide hydrochloride]
0.2 | Cl.O=C(Nc1cnsc1OCC1CNC1)c1ccc(F)c(-c2c(F)cccc2F)n1 [Example 2, N-(5-(azetidin-3-ylmethoxy)isothiazol-4-yl)-6-(2,6-difluorophenyl)-5-fluoropicolinamide hydrochloride]
1.3 | Cl.O=C(Nc1cnsc1OC1CCNCC1)c1ccc(F)c(-c2c(F)cccc2F)n1 [Example 3, 6-(2,6-difluorophenyl)-5-fluoro-N-(5-(piperidin-4-yloxy)isothiazol-4-yl)picolinamide hydrochloride]
0.9 | Cl.O=C(Nc1cnsc1OCC1CCCNC1)c1ccc(F)c(-c2c(F)cccc2F)n1 (centres unmarked) [Example 7, 6-(2,6-difluorophenyl)-5-fluoro-N-(5-(piperidin-3-ylmethoxy)isothiazol-4-yl)picolinamide hydrochloride]
0.7 | Cl.O=C(Nc1cnsc1OCC1CCNC1)c1ccc(F)c(-c2c(F)cccc2F)n1 (centres unmarked) [Example 8, 6-(2,6-difluorophenyl)-5-fluoro-N-(5-(pyrrolidin-3-ylmethoxy)isothiazol-4-yl)picolinamide hydrochloride]
2.2 | Cl.Nc1cc(F)c(-c2c(F)cccc2F)nc1C(=O)Nc1cnsc1OCC1CCNCC1 [Example 23, 3-amino-6-(2,6-difluorophenyl)-5-fluoro-N-(5-(piperidin-4-ylmethoxy)isothiazol-4-yl)picolinamide hydrochloride]
1.9 | Cl.Nc1cc(F)c(-c2c(F)cccc2F)nc1C(=O)Nc1cnsc1OC1CCNC1 (centres unmarked) [Example 24, 3-amino-6-(2,6-difluorophenyl)-5-fluoro-N-(5-(pyrrolidin-3-yloxy)isothiazol-4-yl)picolinamide hydrochloride]
2.5 | Cl.Nc1cc(F)c(-c2c(F)cccc2F)nc1C(=O)Nc1cnsc1OC1CCNCC1 [Example 25, 3-amino-6-(2,6-difluorophenyl)-5-fluoro-N-(5-(piperidin-4-yloxy)isothiazol-4-yl)picolinamide hydrochloride]
3.1 | Cl.Nc1cc(F)c(-c2c(F)cccc2F)nc1C(=O)Nc1cnsc1OC1CCCNCC1 (centres unmarked) [Example 26, 3-amino-N-(5-(azepan-4-yloxy)isothiazol-4-yl)-6-(2,6-difluorophenyl)-5-fluoropicolinamide hydrochloride]
2.8 | Cl.Nc1cc(F)c(-c2c(F)cccc2F)nc1C(=O)Nc1cnsc1O[C@H]1CC[C@H](N)CC1 [Example 27, 3-amino-N-(5-(((1r,4r)-4-aminocyclohexyl)oxy)isothiazol-4-yl)-6-(2,6-difluorophenyl)-5-fluoropicolinamide hydrochloride]
1.7 | Cl.Nc1cc(F)c(-c2c(F)cccc2F)nc1C(=O)Nc1cnsc1OCC1CCNC1 (centres unmarked) [Example 28, 3-amino-6-(2,6-difluorophenyl)-5-fluoro-N-(5-(pyrrolidin-3-ylmethoxy)isothiazol-4-yl)picolinamide hydrochloride]
0.1 | Cl.Nc1cc(F)c(-c2c(F)cccc2F)nc1C(=O)Nc1cnsc1OC1CNC1 [Example 31, 3-amino-N-(5-(azetidin-3-yloxy)isothiazol-4-yl)-6-(2,6-difluorophenyl)-5-fluoropicolinamide hydrochloride]
0.3 | Cl.Nc1cc(F)c(-c2c(F)cccc2F)nc1C(=O)Nc1cnsc1OCC1CNC1 [Example 32, 3-amino-N-(5-(azetidin-3-ylmethoxy)isothiazol-4-yl)-6-(2,6-difluorophenyl)-5-fluoropicolinamide hydrochloride]
